Measurements reported in PubChem BioAssay AID1259411 (Chemical Carcinogenesis Research Information System (CCRIS), 2018).
Calls of active or inactive are those of the source. The rule behind the calls is not given here.

System: rodent carcinogenicity bioassays, tumor incidence
Experiment: CCRIS carcinogenicity studies
Outline: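 Archive of carcinogenicity, mutagenicity, tumor promotion and tumor inhibition results drawn from journals, NCI reports and other sources, expert-reviewed; covers 1985-2011 and is no longer updated.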

With OC(Cn1cncn1)(c1ccc(F)cc1)c1ccccc1F (stereo not given) the carcinogen call (Species: Mouse, Strain/Sex: C57BL/10JfCD-1/Alpk (C57BL/10J)/Female (50/Group), Route: Oral, Dose: 0, 10, 50, 200 ppm (0; 1.5; 7.5; 30 mg/kg/day) of 93% flutriafol in diet for 2 yr, study duration 2 yr, Dose: 0, 10, 50, 200 ppm (0; 1.5; 7.5; 30 mg/kg/day) of 93% flutriafol in diet for 2 yr, study duration 2 yr) was “inactive; negative”, the carcinogen call (Species: Mouse, Strain/Sex: C57BL/10JfCD-1/Alpk (C57BL/10J)/Male (50/Group), Route: Oral, Dose: 0, 10, 50, 200 ppm (0; 1.5; 7.5; 30 mg/kg/day) of 93% flutriafol in diet for 2 yr, study duration 2 yr, Dose: 0, 10, 50, 200 ppm (0; 1.5; 7.5; 30 mg/kg/day) of 93% flutriafol in diet for 2 yr, study duration 2 yr) was “inactive; negative” and the carcinogen call (Species: Rat, Strain/Sex: Alpk:AP/Female (52/Group), Route: Oral, Dose: 0, 20, 200, 2000 ppm (0; 1; 10; 100 mg/kg/day) of 93% flutriafol in diet for 104 wk, study duration 104 wk, Dose: 0, 20, 200, 2000 ppm (0; 1; 10; 100 mg/kg/day) of 93% flutriafol in diet for 104 wk, study duration 104 wk) was “inactive; negative”. For the same molecule, the carcinogen call (Species: Rat, Strain/Sex: Alpk:AP/Male (52/Group), Route: Oral, Dose: 0, 20, 200, 2000 ppm (0; 1; 10; 100 mg/kg/day) of 93% flutriafol in diet for 104 wk, study duration 104 wk, Dose: 0, 20, 200, 2000 ppm (0; 1; 10; 100 mg/kg/day) of 93% flutriafol in diet for 104 wk, study duration 104 wk) was “inactive; negative”.
For O=C(O)CCCCCCCCC(=O)O, the carcinogen call (Species: RABBIT, Strain/Sex: NEW ZEALAND/FEMALE, Route: ORAL, Dose: 0, 750, 1000 MG/KG/BW IN DIET FOR 6 MO (STUDY DURATION: 181 D), Dose: 0, 750, 1000 MG/KG/BW IN DIET FOR 6 MO (STUDY DURATION: 181 D)) was “inactive; negative”, the carcinogen call (Species: RABBIT, Strain/Sex: NEW ZEALAND/MALE, Route: ORAL, Dose: 0, 750, 1000 MG/KG/BW IN DIET FOR 6 MO (STUDY DURATION: 181 D), Dose: 0, 750, 1000 MG/KG/BW IN DIET FOR 6 MO (STUDY DURATION: 181 D)) was “inactive; negative” and the carcinogen call (Species: RAT, Strain/Sex: WISTAR/FEMALE, Route: ORAL, Dose: 0, 500, 1000 MG/KG/BW IN DIET FOR 6 MO (STUDY DURATION: 181 D), Dose: 0, 500, 1000 MG/KG/BW IN DIET FOR 6 MO (STUDY DURATION: 181 D)) was “inactive; negative”. The carcinogen call (Species: RAT, Strain/Sex: WISTAR/MALE, Route: ORAL, Dose: 0, 500, 1000 MG/KG/BW IN DIET FOR 6 MO (STUDY DURATION: 181 D), Dose: 0, 500, 1000 MG/KG/BW IN DIET FOR 6 MO (STUDY DURATION: 181 D)) was “inactive; negative”.
O=C(O)C(Cl)Br (stereo not given) was tested, and the carcinogen call (Species: Mouse, Strain/Sex: B6C3F1 / Female (50/Group), Route: Oral, Dose: 0, 250, 500, 1,000 mg/l in drinking water for 105 wk, Dose: 0, 250, 500, 1,000 mg/l in drinking water for 105 wk, Tumor Site: Type of Lesion: Liver: hepatocellular neoplasms) was “active; positive. authors describe as clear evidence”, the carcinogen call (Species: Mouse, Strain/Sex: B6C3F1 / Male (50/Group), Route: Oral, Dose: 0, 250, 500, 1,000 mg/l in drinking water for 105 wk, Dose: 0, 250, 500, 1,000 mg/l in drinking water for 105 wk, Tumor Site: Type of Lesion: Liver: hepatocellular neoplasms and hepatoblastoma) was “active; positive. authors describe as clear evidence” and the carcinogen call (Species: Rat, Strain/Sex: F344/N / Female (50/Group), Route: Oral, Dose: 0, 250, 500, 1,000 mg/l in drinking water for 105 wk, Dose: 0, 250, 500, 1,000 mg/l in drinking water for 105 wk, Tumor Site: Type of Lesion: Large Intestine: adenoma, Mammary Gland: multiple fibroadenomas, Pancreatic Islet: adenoma (may have been related), Tumor Site: Type of Lesion: Large Intestine: adenoma, Mammary Gland: multiple fibroadenomas, Pancreatic Islet: adenoma (may have been related)) was “active; positive (some of the p values do not reach significance.) authors describe as c”. For the same molecule, the carcinogen call (Species: Rat, Strain/Sex: F344/N / Male (50/Group), Route: Oral, Dose: 0, 250, 500, 1,000 mg/l in drinking water for 105 wk, Dose: 0, 250, 500, 1,000 mg/l in drinking water for 105 wk, Tumor Site: Type of Lesion: Mesothelium: malignant mesothelioma, Large Intestine: adenoma, Pancreatic Islet: adenoma (may have been related), Tumor Site: Type of Lesion: Mesothelium: malignant mesothelioma, Large Intestine: adenoma, Pancreatic Islet: adenoma (may have been related)) was “active; positive. authors describe as clear evidence”.
C=CN(CC)N=O was tested, and the carcinogen call (Species: HAMSTER, Strain/Sex: SYRIAN/FEMALE, Route: SUBCUTANEOUS, Dose: 0.63-5 MG/KG IN OLIVE OIL 1/WK FOR LIFE, Tumor Site: Type of Lesion: NASAL CAVITY: PAPILLOMA, EPIDERMOID CARCINOMA, ADENOCARCINOMA, LARYNX: PAPILLOMA, EPIDERMOID CARCINOMA, TRACHEA: PAPILLO, Tumor Site: Type of Lesion: NASAL CAVITY: PAPILLOMA, EPIDERMOID CARCINOMA, ADENOCARCINOMA, LARYNX: PAPILLOMA, EPIDERMOID CARCINOMA, TRACHEA: PAPILLO) was “active; positive”, the carcinogen call (Species: HAMSTER, Strain/Sex: SYRIAN/MALE, Route: SUBCUTANEOUS, Dose: 0.63-5 MG/KG IN OLIVE OIL 1/WK FOR LIFE, Tumor Site: Type of Lesion: NASAL CAVITY: PAPILLOMA, EPIDERMOID CARCINOMA, ADENOCARCINOMA, LARYNX: PAPILLOMA, EPIDERMOID CARCINOMA, TRACHEA: PAPILLO, Tumor Site: Type of Lesion: NASAL CAVITY: PAPILLOMA, EPIDERMOID CARCINOMA, ADENOCARCINOMA, LARYNX: PAPILLOMA, EPIDERMOID CARCINOMA, TRACHEA: PAPILLO) was “active; positive” and the carcinogen call (Species: RAT, Route: INTRAVENOUS, Dose: 10.0 MG/KG 1/WK(MEAN TOTAL DOSE 0.25 G/KG), Tumor Site: Type of Lesion: ESOPHAGUS) was “active; positive”. The carcinogen call (Species: RAT, Route: ORAL, Dose: 1.30, 2.50 MG/KG 7/WK (MEAN TOTAL DOSE 0.23; 0.42 G/KG), Dose: 1.30, 2.50 MG/KG 7/WK (MEAN TOTAL DOSE 0.23; 0.42 G/KG), Tumor Site: Type of Lesion: ESOPHAGUS) was “active; positive”.
In the case of Cc1cc(C)c(N=Nc2c(O)c(S(=O)(=O)O)cc3cc(S(=O)(=O)O)ccc23)cc1C, the carcinogen call (Species: RAT, Route: ORAL, Tumor Site: Type of Lesion: LIVER) is reported as “active; positive”.
For CC(=O)c1ccc(S(=O)(=O)NC(=O)NC2CCCCC2)cc1, the carcinogen call (Species: MOUSE, Strain/Sex: B6C3F1/FEMALE, Route: ORAL, Dose: 0, 6359, 12718 PPM IN DIET, TWA, Dose: 0, 6359, 12718 PPM IN DIET, TWA) was “inactive; negative”, the carcinogen call (Species: MOUSE, Strain/Sex: B6C3F1/MALE, Route: ORAL, Dose: 0, 6359, 12718 PPM IN DIET, TWA, Dose: 0, 6359, 12718 PPM IN DIET, TWA) was “inactive; negative” and the carcinogen call (Species: RAT, Strain/Sex: F344/FEMALE, Route: ORAL, Dose: 0, 10000, 20000 PPM IN DIET, Dose: 0, 10000, 20000 PPM IN DIET) was “inactive; negative”. For the same molecule, the carcinogen call (Species: RAT, Strain/Sex: F344/MALE, Route: ORAL, Dose: 0, 10000, 20000 PPM IN DIET, Dose: 0, 10000, 20000 PPM IN DIET) was “inactive; negative”.
In the case of CC(C)([CH2][Sn]([CH2]C(C)(C)c1ccccc1)([CH2]C(C)(C)c1ccccc1)[O][Sn]([CH2]C(C)(C)c1ccccc1)([CH2]C(C)(C)c1ccccc1)[CH2]C(C)(C)c1ccccc1)c1ccccc1, the carcinogen call (Species: Mouse, Strain/Sex: Unspecified strain/Female (96/Control group; 48/Experimental group), Route: Oral, Dose: 0, 50, 100, 300, 600 ppm of 97% fenbutatin oxide in the diet for 18 mo, study duration 18 mo, Dose: 0, 50, 100, 300, 600 ppm of 97% fenbutatin oxide in the diet for 18 mo, study duration 18 mo) is reported as “inactive; negative”, the carcinogen call (Species: Mouse, Strain/Sex: Unspecified strain/Male (96/Control group; 48/Experimental group), Route: Oral, Dose: 0, 50, 100, 300, 600 ppm of 97% fenbutatin oxide in the diet for 18 mo, study duration 18 mo, Dose: 0, 50, 100, 300, 600 ppm of 97% fenbutatin oxide in the diet for 18 mo, study duration 18 mo) is reported as “inactive; negative” and the carcinogen call (Species: Rat, Strain/Sex: Carworth Farm E/Female (96/Control group; 48/Experimental group), Route: Oral, Dose: 0, 50, 100, 300, 600 ppm of 97% fenbutatin oxide in the diet for 2 yr, study duration 2 yr, Dose: 0, 50, 100, 300, 600 ppm of 97% fenbutatin oxide in the diet for 2 yr, study duration 2 yr) is reported as “inactive; negative”. The carcinogen call (Species: Rat, Strain/Sex: Carworth Farm E/Male (96/Control group; 48/Experimental group), Route: Oral, Dose: 0, 50, 100, 300, 600 ppm of 97% fenbutatin oxide in the diet for 2 yr, study duration 2 yr, Dose: 0, 50, 100, 300, 600 ppm of 97% fenbutatin oxide in the diet for 2 yr, study duration 2 yr) was “inactive; negative”.
For CCC(=O)OCCCCCC(C)C, the carcinogen call (Species: MOUSE, Strain/Sex: C3H/MALE, Route: DERMAL, Dose: 25 µL (19% W/V IN 70:30 ACETONE/HEPTANE APPLIED TO BACK 3 D/WK FOR LIFE (STUDY DURATION: LIFE)) was “inactive; negative”.
For CC1=C2C(=CO[C@H](C)[C@H]2C)C(=O)C(C(=O)O)=C1O, the carcinogen call (Species: MOUSE, Strain/Sex: DDD/MALE, Route: ORAL, Dose: 0, 100, 200 PPM IN DIET FOR 70 WK (STUDY DURATION: 70 WK), Dose: 0, 100, 200 PPM IN DIET FOR 70 WK (STUDY DURATION: 70 WK)) was “inactive; negative”, the carcinogen call (Species: RAT, Route: DIET, Dose: 0, 0.1%, FOR 32 WK, Tumor Site: Type of Lesion: KIDNEY: ADENOMA, ADENOCARCINOMA) was “active; positive” and the carcinogen call (Species: RAT, Strain/Sex: F344/MALE, Route: ORAL, Dose: 0.1% IN DIET FOR 80 WK, Tumor Site: Type of Lesion: KIDNEY: CLEAR CELL ADENOMA) was “active; positive”.
With NC(=O)OCCO the carcinogen call (Species: MOUSE, Strain/Sex: STRAIN-A/MALE, Route: INTRAPERITONEAL, Dose: 0, 1.12, 4.6, 11.2 MMOL/KG IN ISOTONIC SALINE ONCE AT 6 WK OF AGE (STUDY DURATION: 16 WK), Dose: 0, 1.12, 4.6, 11.2 MMOL/KG IN ISOTONIC SALINE ONCE AT 6 WK OF AGE (STUDY DURATION: 16 WK), Tumor Site: Type of Lesion: LUNG: ADENOMA) was “active; positive”.
